Laboratory results from the supplement of paper PMC8671470.

How the values were obtained:
Conditions in all cases: 72 h
[1] = test system: K-562
Outline: (§1)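 In 384-well plates holding acoustically pre-printed compounds at five tenfold doses from 1 to 10,000 nM, in duplicate, fifteen myeloid leukaemia cell lines were grown in RPMI 1640 for 72 h at 37 °C with 5% CO2. Luminescent ATP viability was scaled between vehicle and a positive control at 10 µM. The IC50 was then taken from log-logistic dose–response fits with four parameters.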

[2] = test system: HEL
Outline: as §1

[3] = test system: LAMA-84
Outline: as §1

[4] = test system: BV-173
Outline: as §1

[5] = test system: MV4-11
Outline: as §1

[6] = test system: KU-812
Outline: as §1

[7] = test system: KCL-22
Outline: as §1

[8] = test system: Mono-Mac-6
Outline: as §1

[9] = test system: KG-1
Outline: as §1

[10] = test system: ML-2
Outline: as §1

[11] = test system: THP-1
Outline: as §1

[12] = test system: HL-60
Outline: as §1

[13] = test system: MOLM-13
Outline: as §1

[14] = test system: NOMO-1
Outline: as §1

[15] = test system: SHI-1
Outline: as §1

[16] = test system: K-562; assay: cell viability (% survival relative to DMSO control, bortezomib = 0%); higher = less cytotoxic
Outline: (§2)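 Fifteen myeloid leukaemia cell lines (10 AML, 5 CML) were seeded at a density titrated to the linear growth range. They went into 384-well plates with compounds pre-printed at 1, 10, 100, 1000 or 10000 nM in duplicate. After 72 h at 37 °C with 5% CO2, viability was read by CellTiter-Glo luminescence. Values are percent survival, with vehicle set to 100% and a 10 µM positive control to 0%, averaged over the duplicates.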

[17] = test system: HEL; assay: as above
Outline: as §2

[18] = test system: LAMA-84; assay: as above
Outline: as §2

[19] = test system: BV-173; assay: as above
Outline: as §2

[20] = test system: MV4-11; assay: as above
Outline: as §2

[21] = test system: KU-812; assay: as above
Outline: as §2

[22] = test system: KCL-22; assay: as above
Outline: as §2

[23] = test system: Mono-Mac-6; assay: as above
Outline: as §2

[24] = test system: KG-1; assay: as above
Outline: as §2

[25] = test system: ML-2; assay: as above
Outline: as §2

[26] = test system: THP-1; assay: as above
Outline: as §2

[27] = test system: HL-60; assay: as above
Outline: as §2

[28] = test system: MOLM-13; assay: as above
Outline: as §2

[29] = test system: NOMO-1; assay: as above
Outline: as §2

[30] = test system: SHI-1; assay: as above
Outline: as §2

COc1ccc2c(NC(=O)Nc3cccc(C(F)(F)F)n3)ccnc2c1
Conditions	IC50 (cell viability) [µM]
[1]	> 10
[2]	> 10
[3]	> 10
[4]	> 10
[5]	> 10
[6]	> 10
[7]	> 10
[8]	> 10
[9]	> 10
[10]	> 10
[11]	> 10
[12]	> 10
[13]	9.04
[14]	> 10
[15]	> 10

cell viability [%]
Conditions	1 nM	10 nM	100 nM	1000 nM	10000 nM
[16]	104	100	95.3	93.7	103
[17]	116	99.2	105	106	108
[18]	102	100	105	100	100
[19]	104	93.6	111	102	87.4
[20]	102	103	101	85.7	77.2
[21]	116	102	108	109	112
[22]	101	102	110	94.9	114
[23]	108	92.3	95.7	94.9	97.1
[24]	90.7	85	92	93.9	120
[25]	101	97.6	109	122	127
[26]	95.5	101	105	95.2	107
[27]	86.5	129	116	116	98.3
[28]	105	115	113	108	44.5
[29]	97.4	98.2	113	94.5	113
[30]	93.6	109	104	110	85.4
